Read-outs that look alike come from different tables or passages of the source.
Tests used:
MDCK II = conditions: fluvoxamine file with reference compounds; ref SimCYP library version 19; cited from earlier work
P-gp [1] = system: T1, P-gp; experiment: P-gp substrate assessment in Caco-2 monolayers with verapamil; type: in vitro ADME; conditions: human, Caco-2, with verapamil (concentration not stated)
T1 construct: endogenous in cells; host or cells: Caco-2

P-gp [2] = target: T2, P-gp (Homo sapiens, UniProt P08183); experiment: as above; type: in vitro ADME; conditions: Caco-2, with verapamil (concentration not stated), read-out: Efflux ratio P app,BL→AP/AP→BL, with inhibitor
T2 construct: endogenous in cells; host or cells: Caco-2
T2 sequence (P08183 whole entry): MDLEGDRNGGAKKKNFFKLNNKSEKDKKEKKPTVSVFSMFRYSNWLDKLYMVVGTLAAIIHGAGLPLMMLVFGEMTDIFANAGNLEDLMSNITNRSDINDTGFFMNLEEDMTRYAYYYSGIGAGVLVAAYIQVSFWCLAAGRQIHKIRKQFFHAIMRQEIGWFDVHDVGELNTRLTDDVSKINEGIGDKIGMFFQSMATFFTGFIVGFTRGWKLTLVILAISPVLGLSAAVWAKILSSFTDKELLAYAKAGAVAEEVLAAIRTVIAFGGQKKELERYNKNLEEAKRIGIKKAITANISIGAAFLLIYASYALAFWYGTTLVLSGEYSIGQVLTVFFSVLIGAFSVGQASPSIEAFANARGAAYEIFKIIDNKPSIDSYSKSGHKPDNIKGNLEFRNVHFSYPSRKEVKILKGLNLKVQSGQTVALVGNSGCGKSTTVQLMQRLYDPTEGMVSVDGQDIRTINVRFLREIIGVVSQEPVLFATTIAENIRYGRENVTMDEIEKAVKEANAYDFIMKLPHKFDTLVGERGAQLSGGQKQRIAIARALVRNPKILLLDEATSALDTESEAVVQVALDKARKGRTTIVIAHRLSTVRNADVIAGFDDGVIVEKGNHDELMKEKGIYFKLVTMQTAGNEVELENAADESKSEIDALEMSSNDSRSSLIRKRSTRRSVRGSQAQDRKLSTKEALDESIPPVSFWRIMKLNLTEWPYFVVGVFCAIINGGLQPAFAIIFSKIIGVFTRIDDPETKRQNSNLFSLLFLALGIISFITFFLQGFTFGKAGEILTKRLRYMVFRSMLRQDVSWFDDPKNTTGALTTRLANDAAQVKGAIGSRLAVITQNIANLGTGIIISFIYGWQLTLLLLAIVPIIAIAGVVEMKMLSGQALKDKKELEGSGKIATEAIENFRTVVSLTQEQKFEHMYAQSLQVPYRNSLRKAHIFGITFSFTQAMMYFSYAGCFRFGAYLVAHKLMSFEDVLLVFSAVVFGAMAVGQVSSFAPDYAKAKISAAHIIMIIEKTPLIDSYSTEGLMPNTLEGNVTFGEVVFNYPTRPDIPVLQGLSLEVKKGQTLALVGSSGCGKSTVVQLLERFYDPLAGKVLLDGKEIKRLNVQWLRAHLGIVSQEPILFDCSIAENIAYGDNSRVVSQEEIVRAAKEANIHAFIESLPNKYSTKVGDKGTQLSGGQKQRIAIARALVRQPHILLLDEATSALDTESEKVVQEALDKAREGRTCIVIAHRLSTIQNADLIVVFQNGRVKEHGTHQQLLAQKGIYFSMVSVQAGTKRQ

Caco‐2 monolayers = experiment: Apparent permeability in Caco-2 monolayers; type: in vitro ADME; conditions: Caco‐2, 10 μM, 2 h
[3] = Apparent permeability in Caco-2 monolayers; type: in vitro ADME; conditions: human
Caco-2 = conditions: ref SimCYP library version 19, cited from earlier work
CYP1A2 [4] = system: CYP1A2; parameters: method as in SimCYP library version 19; conditions: ref SimCYP library version 19; cited from earlier work
CYP2B6 = system: CYP2B6; parameters: method as in SimCYP library version 19; conditions: ref SimCYP library version 19, cited from earlier work
[5] = model input; ref SimCYP library version 19; cited from earlier work
[6] = model input; ref SimCYP library version 19; cited from earlier work; remark: listed apart in the source
[7] = parameters: method as in SimCYP library version 19; conditions: ref SimCYP library version 19; cited from earlier work
CYP2C8 [8] = system: CYP2C8; parameters: method as in SimCYP library version 19; conditions: ref SimCYP library version 19, cited from earlier work
[9] = ref SimCYP library version 19, cited from earlier work
[10] = model input; ref SimCYP library version 19; cited from earlier work; remark: listed apart in the source
CYP2C8 [11] = system: CYP2C8; parameters: method as in SimCYP library version 19; conditions: ref SimCYP library version 19; cited from earlier work
CYP3A4 [12] = system: CYP3A4; parameters: method as in SimCYP library version 19; conditions: ref SimCYP library version 19; cited from earlier work
CYP2C9 = conditions: read-out: CYP2C9 Ki; competitive inhibition; ref SimCYP library version 19; cited from earlier work
CYP3A4 [13] = conditions: cited from earlier work
CYP1A2 [14] = conditions: read-out: CYP1A2 Ki; competitive inhibition; ref SimCYP library version 19; cited from earlier work
CYP2C19 = conditions: read-out: CYP2C19 Ki; competitive inhibition; ref SimCYP library version 19; cited from earlier work
CYP2D6 = conditions: read-out: CYP2D6 Ki; competitive inhibition; ref SimCYP library version 19; cited from earlier work
[15] = pH 7.4: pH 7.4, Passive&Active, erythromycin file with reference compounds

**Q.** Which results are given for `CC(C)NCC(O)COc1cccc2ccccc12` (centres unmarked) [Propranolol]?
**A.** MDCK II Papp (MDCK II): 40.3 10^-6 cm/s; Papp A→B at 2 h, 10 μM (P-gp [1]; read-out: P app,AP→BL, with inhibitor): 57.4 ×10⁻⁶ cm/s; Papp B→A at 2 h, 10 μM (P-gp [1]; read-out: P app,BL→AP, with inhibitor): 21.9 ×10⁻⁶ cm/s; efflux ratio at 2 h, 10 μM (P-gp [2]): 0.382; P app,AP→BL, without inhibitor (Caco‐2 monolayers): 29.4 10^−6 cm/s; Papp at 2 h ([3]; Caco-2, Apical pH : Basolateral pH 7.4 : 7.4, source Measured, read-out: Caco-2 permeability (model input)): 29.4 ×10⁻⁶ cm/s; Papp B→A at 2 h, 10 μM ([3]; Caco‐2, 10 μM, 2 h, read-out: P app,BL→AP, without inhibitor): 23.1 ×10⁻⁶ cm/s; efflux ratio at 2 h, 10 μM ([3]; Caco‐2, 10 μM, read-out: Efflux ratio P app,BL→AP/AP→BL, without inhibitor): 0.785; Reference compound Papp (Caco-2; Caco-2 pH 6.5: pH 7.4, references of fluconazole file, unit not given): 27.5; Caco-2 Papp (Caco-2; pH 6.5: pH 7.4, Passive, rifampicin file with reference compound): 21.15 10^-6 cm/s; Caco-2 Papp (Caco-2; [15]): 147 10^-6 cm/s

**Q.** For `CO[C@H]1/C=C/O[C@@]2(C)Oc3c(C)c(O)c4c(O)c(c(/C=N/N5CCN(C)CC5)c(O)c4c3C2=O)NC(=O)/C(C)=C\C=C\[C@H](C)[C@H](O)[C@@H](C)[C@@H](O)[C@@H](C)[C@H](OC(C)=O)[C@@H]1C` [Rifampicin], which “fuinc (CYP1A2 induction)” value (CYP1A2 [4]) is on record?
**A.** 1

**Q.** And the EC50 (CYP2B6; induction, read-out: CYP2B6 IndC50)?
**A.** 70 nM

**Q.** And the “fuinc (CYP2B6 induction)” value (CYP2B6)?
**A.** 1

**Q.** What about the Lag time [5] of the same molecule?
**A.** 0/30 h

**Q.** What about the QGut [5] of the same molecule?
**A.** 9.42/30

**Q.** What about the fuGut [5] of the same molecule?
**A.** 0.14

**Q.** What about the “Log P” value [6] of the same molecule?
**A.** 4.01

**Q.** And the “pKa 1” value [6]?
**A.** 1.7

**Q.** And the “pKa 2” value [6]?
**A.** 7.9

**Q.** What about the CLR [7] of the same molecule?
**A.** 1.26 L/h

**Q.** And the EC50 (CYP2C8 [8]; induction, read-out: CYP2C8 IndC50)?
**A.** 300 nM

**Q.** And the “fuinc (CYP2C8 induction)” value (CYP2C8 [8])?
**A.** 1

**Q.** And the kin ([9]; single adjusting compartment)?
**A.** 0 h⁻¹

**Q.** And the kout ([9]; single adjusting compartment)?
**A.** 0 h⁻¹

**Q.** And the “Fraction unbound in plasma” value [10]?
**A.** 0.116

**Q.** And the “fumic (CYP2C8 inhibition)” value (CYP2C8 [11])?
**A.** 1

**Q.** For `CC[C@H]1OC(=O)[C@H](C)[C@@H](O[C@H]2C[C@@](C)(OC)[C@@H](O)[C@H](C)O2)[C@H](C)[C@@H](O[C@@H]2O[C@H](C)C[C@H](N(C)C)[C@H]2O)[C@](C)(O)C[C@@H](C)C(=O)[C@H](C)[C@@H](O)[C@]1(C)O` [Erythromycin], which CLR [7] is on record?
**A.** 3.13 L/h

**Q.** What about the “Caco-2 Papp” value (Caco-2; [15]) of the same molecule?
**A.** 1.7 10^-6 cm/s

**Q.** And the “CYP3A4 Kapp” value (CYP3A4 [12])?
**A.** 23.2 µM

**Q.** And the Vss ([9]; minimal PBPK model)?
**A.** 0.75/30 L/kg

**Q.** And the “Volume [Vsac]” value ([9]; single adjusting compartment)?
**A.** 1e-05 L/kg

**Q.** And the kin ([9]; single adjusting compartment)?
**A.** 0 h⁻¹

**Q.** And the kout ([9]; single adjusting compartment)?
**A.** 0 h⁻¹

**Q.** And the “Fraction unbound in plasma” value [10]?
**A.** 0.31

**Q.** Which Ki (CYP2C9) does the source give for `COCCCC/C(=N\OCCN)c1ccc(C(F)(F)F)cc1` [Fluvoxamine] here?
**A.** 126 nM

**Q.** And the Ki (CYP1A2 [14])?
**A.** 2 nM

**Q.** What about the Ki (CYP2C19) of the same molecule?
**A.** 6 nM

**Q.** And the “pKa 1” value [6]?
**A.** 8.7

**Q.** What about the Ki (CYP2D6) of the same molecule?
**A.** 189 nM

— PMC10349193 (CPT: Pharmacometrics & Systems Pharmacology, 2023)
